Consider 1 compound from US12721985B2, “Microneedle patch system for transdermal drug delivery” (INDUSTRY-ACADEMIC COOPERATION FOUNDATION GYEONGSANG …, priority 2021, dated 2026).

Molecules are shown by their SMILES.

A short description of the data set: Drug blood concentration pattern in rats after donepezil administration. The settings on record: rat, in vivo. The protocol:
More specifically, 3 mg/kg of donepezil was administered orally, 1 mg/kg of donepezil was administered subcutaneously, or 43 mg/kg of donepezil was administered using the microneedle patch prepared in the above example to rats, and the drug blood concentration patterns were compared.
Next, rats were administered donepezil at different concentrations of 43 mg/kg, 80 mg/kg, and 125 mg/kg using the microneedle patch prepared in the above example, respectively, and the drug blood concentration patterns were compared.
Next, after administering 80 mg/kg of donepezil to rats using the microneedle patch prepared in the above example, the drug blood concentration pattern was compared between the case where the needle was removed in 1 hour and the case where the needle was applied for 3 days.

With `COc1cc2c(cc1OC)C(=O)C(CC1CCN(Cc3ccccc3)CC1)C2` (centres unmarked) [donepezil], the “time in which drug blood concentration was very low” value runs as follows: (po, 3 mg/kg) “about 1 day”; (sc, 1 mg/kg) “about 1 day”.
